Measurements reported in the supplement of paper PMC10307832.

Legend:
Assay in all cases: relative viability (nuclei count vs DMSO), 5 days (fraction); higher = more cells survive
[1] = compound: O=c1[nH]cc(F)c(=O)[nH]1 [5-Fluorouracil] + CC(C)C[C@H](NC(=O)[C@H](Cc1ccccc1)NC(=O)c1cnccn1)B(O)O [Bortezomib] (partner 0.002 µM)
Summary of the method: (§1)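 Relative viability was taken as the ratio of nuclei in treated wells to nuclei in vehicle wells. Lung cancer cell lines in 1536-well plates received compounds by pin tool one day after seeding, either one drug alone or a fixed anchor-drug dose plus five library-drug doses (not always all listed) in √10 steps. Nuclei were counted on 4× images after 5 days of treatment, and values are medians of duplicate plates.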

Sulindac + Phenformin = compound: CC1=C(CC(=O)O)c2cc(F)ccc2/C1=C\c1ccc([S+](C)[O-])cc1 [Sulindac] + N=C(N)NC(=N)NCCc1ccccc1 [Phenformin] (partner 250 µM)
Summary of the method: as §1

Sulindac + Palbociclib = compound: CC1=C(CC(=O)O)c2cc(F)ccc2/C1=C\c1ccc([S+](C)[O-])cc1 [Sulindac] + CC(=O)c1c(C)c2cnc(Nc3ccc(N4CCNCC4)cn3)nc2n(C2CCCC2)c1=O [Palbociclib] (partner 0.5 µM)
Summary of the method: as §1

[2] = compound: CN[C@@H]1C[C@H]2O[C@@](C)([C@@H]1OC)n1c3ccccc3c3c4c(c5c6ccccc6n2c5c31)C(=O)NC4 [Staurosporine] + C[C@@H](Oc1cc(-c2cnn(C3CCNCC3)c2)cnc1N)c1c(Cl)ccc(F)c1Cl [Crizotinib] (partner 1 µM)
Summary of the method: as §1

## NCI-H661
[1]; first compound 0.02 µM
  relative viability: 0.669
[1]; first compound 0.2 µM
  relative viability: 0.816
[1]; first compound 0.6325 µM
  relative viability: 0.759
[1]; first compound 2 µM
  relative viability: 0.804
Sulindac + Phenformin; first compound 0.08 µM
  relative viability: 0.244
Sulindac + Phenformin; first compound 0.253 µM
  relative viability: 0.258
Sulindac + Phenformin; first compound 0.8 µM
  relative viability: 0.28
Sulindac + Phenformin; first compound 2.53 µM
  relative viability: 0.246
Sulindac + Phenformin; first compound 8 µM
  relative viability: 0.277
Sulindac + Palbociclib; first compound 0.08 µM
  relative viability: 0.405
Sulindac + Palbociclib; first compound 0.253 µM
  relative viability: 0.433
Sulindac + Palbociclib; first compound 0.8 µM
  relative viability: 0.458
Sulindac + Palbociclib; first compound 2.53 µM
  relative viability: 0.376
Sulindac + Palbociclib; first compound 8 µM
  relative viability: 0.449
[2]; first compound 0.005 µM
  relative viability: 1.03
[2]; first compound 0.01581 µM
  relative viability: 0.9
[2]; first compound 0.05 µM
  relative viability: 0.81
[2]; first compound 0.1581 µM
  relative viability: 0.501
[2]; first compound 0.5 µM
  relative viability: 0.415

## NCI-H1975
[1]; first compound 0.02 µM
  relative viability: 0.472
[1]; first compound 0.2 µM
  relative viability: 0.3
[1]; first compound 0.6325 µM
  relative viability: 0.214
[1]; first compound 2 µM
  relative viability: 0.17
Sulindac + Phenformin; first compound 0.08 µM
  relative viability: 0.27
Sulindac + Phenformin; first compound 0.253 µM
  relative viability: 0.404
Sulindac + Phenformin; first compound 0.8 µM
  relative viability: 0.365
Sulindac + Phenformin; first compound 2.53 µM
  relative viability: 0.403
Sulindac + Phenformin; first compound 8 µM
  relative viability: 0.457
Sulindac + Palbociclib; first compound 0.08 µM
  relative viability: 0.621
Sulindac + Palbociclib; first compound 0.253 µM
  relative viability: 0.638
Sulindac + Palbociclib; first compound 0.8 µM
  relative viability: 0.451
Sulindac + Palbociclib; first compound 2.53 µM
  relative viability: 0.546
Sulindac + Palbociclib; first compound 8 µM
  relative viability: 0.619
[2]; first compound 0.005 µM
  relative viability: 0.369
[2]; first compound 0.01581 µM
  relative viability: 0.276
[2]; first compound 0.05 µM
  relative viability: 0.212
[2]; first compound 0.1581 µM
  relative viability: 0.121
[2]; first compound 0.5 µM
  relative viability: 0.115

## NCI-H1755
[1]; first compound 0.02 µM
  relative viability: 0.975
[1]; first compound 0.2 µM
  relative viability: 0.442
[1]; first compound 0.6325 µM
  relative viability: 0.397
[1]; first compound 2 µM
  relative viability: 0.311
Sulindac + Phenformin; first compound 0.08 µM
  relative viability: 0.645
Sulindac + Phenformin; first compound 0.253 µM
  relative viability: 0.653
Sulindac + Phenformin; first compound 0.8 µM
  relative viability: 0.525
Sulindac + Phenformin; first compound 2.53 µM
  relative viability: 0.643
Sulindac + Phenformin; first compound 8 µM
  relative viability: 0.648
Sulindac + Palbociclib; first compound 0.08 µM
  relative viability: 0.479
Sulindac + Palbociclib; first compound 0.253 µM
  relative viability: 0.48
Sulindac + Palbociclib; first compound 0.8 µM
  relative viability: 0.517
Sulindac + Palbociclib; first compound 2.53 µM
  relative viability: 0.495
Sulindac + Palbociclib; first compound 8 µM
  relative viability: 0.504
[2]; first compound 0.005 µM
  relative viability: 0.569
[2]; first compound 0.01581 µM
  relative viability: 0.352
[2]; first compound 0.05 µM
  relative viability: 0.179
[2]; first compound 0.1581 µM
  relative viability: 0.176
[2]; first compound 0.5 µM
  relative viability: 0.163

## NCI-H2009
[1]; first compound 0.02 µM
  relative viability: 1.04
[1]; first compound 0.2 µM
  relative viability: 1.01
[1]; first compound 0.6325 µM
  relative viability: 0.722
[1]; first compound 2 µM
  relative viability: 0.463
Sulindac + Phenformin; first compound 0.08 µM
  relative viability: 0.549
Sulindac + Phenformin; first compound 0.253 µM
  relative viability: 0.521
Sulindac + Phenformin; first compound 0.8 µM
  relative viability: 0.45
Sulindac + Phenformin; first compound 2.53 µM
  relative viability: 0.53
Sulindac + Phenformin; first compound 8 µM
  relative viability: 0.538
Sulindac + Palbociclib; first compound 0.08 µM
  relative viability: 0.176
Sulindac + Palbociclib; first compound 0.253 µM
  relative viability: 0.209
Sulindac + Palbociclib; first compound 0.8 µM
  relative viability: 0.234
Sulindac + Palbociclib; first compound 2.53 µM
  relative viability: 0.17
Sulindac + Palbociclib; first compound 8 µM
  relative viability: 0.242
[2]; first compound 0.005 µM
  relative viability: 0.255
[2]; first compound 0.01581 µM
  relative viability: 0.22
[2]; first compound 0.05 µM
  relative viability: 0.174
[2]; first compound 0.1581 µM
  relative viability: 0.123
[2]; first compound 0.5 µM
  relative viability: 0.0888

## HCC-78
[1]; first compound 0.02 µM
  relative viability: 0.471
[1]; first compound 0.2 µM
  relative viability: 0.546
[1]; first compound 0.6325 µM
  relative viability: 0.525
[1]; first compound 2 µM
  relative viability: 0.274
Sulindac + Phenformin; first compound 0.08 µM
  relative viability: 0.792
Sulindac + Phenformin; first compound 0.253 µM
  relative viability: 0.689
Sulindac + Phenformin; first compound 0.8 µM
  relative viability: 0.614
Sulindac + Phenformin; first compound 2.53 µM
  relative viability: 0.763
Sulindac + Phenformin; first compound 8 µM
  relative viability: 0.738
Sulindac + Palbociclib; first compound 0.08 µM
  relative viability: 0.481
Sulindac + Palbociclib; first compound 0.253 µM
  relative viability: 0.48
Sulindac + Palbociclib; first compound 0.8 µM
  relative viability: 0.501
Sulindac + Palbociclib; first compound 2.53 µM
  relative viability: 0.444
Sulindac + Palbociclib; first compound 8 µM
  relative viability: 0.442
[2]; first compound 0.005 µM
  relative viability: 0.358
[2]; first compound 0.01581 µM
  relative viability: 0.236
[2]; first compound 0.05 µM
  relative viability: 0.244
[2]; first compound 0.1581 µM
  relative viability: 0.261
[2]; first compound 0.5 µM
  relative viability: 0.239

## NCI-H3122
[1]; first compound 0.02 µM
  relative viability: 0.998
[1]; first compound 0.2 µM
  relative viability: 0.897
[1]; first compound 0.6325 µM
  relative viability: 0.353
[1]; first compound 2 µM
  relative viability: 0.298
Sulindac + Phenformin; first compound 0.08 µM
  relative viability: 0.384
Sulindac + Phenformin; first compound 0.253 µM
  relative viability: 0.37
Sulindac + Phenformin; first compound 0.8 µM
  relative viability: 0.626
Sulindac + Phenformin; first compound 2.53 µM
  relative viability: 0.325
Sulindac + Phenformin; first compound 8 µM
  relative viability: 0.413
Sulindac + Palbociclib; first compound 0.08 µM
  relative viability: 0.161
Sulindac + Palbociclib; first compound 0.253 µM
  relative viability: 0.183
Sulindac + Palbociclib; first compound 0.8 µM
  relative viability: 0.218
Sulindac + Palbociclib; first compound 2.53 µM
  relative viability: 0.204
Sulindac + Palbociclib; first compound 8 µM
  relative viability: 0.205
[2]; first compound 0.005 µM
  relative viability: 0.443
[2]; first compound 0.01581 µM
  relative viability: 0.465
[2]; first compound 0.05 µM
  relative viability: 0.59
[2]; first compound 0.1581 µM
  relative viability: 0.32
[2]; first compound 0.5 µM
  relative viability: 0.318

## HOP-62
[1]; first compound 0.02 µM
  relative viability: 0.85
[1]; first compound 0.2 µM
  relative viability: 0.891
[1]; first compound 0.6325 µM
  relative viability: 0.859
[1]; first compound 2 µM
  relative viability: 0.558
Sulindac + Phenformin; first compound 0.08 µM
  relative viability: 0.785
Sulindac + Phenformin; first compound 0.253 µM
  relative viability: 0.937
Sulindac + Phenformin; first compound 2.53 µM
  relative viability: 0.746
Sulindac + Phenformin; first compound 8 µM
  relative viability: 0.759
Sulindac + Palbociclib; first compound 0.08 µM
  relative viability: 0.495
Sulindac + Palbociclib; first compound 0.253 µM
  relative viability: 0.553
Sulindac + Palbociclib; first compound 0.8 µM
  relative viability: 0.469
Sulindac + Palbociclib; first compound 2.53 µM
  relative viability: 0.525
Sulindac + Palbociclib; first compound 8 µM
  relative viability: 0.541
[2]; first compound 0.005 µM
  relative viability: 1.02
[2]; first compound 0.01581 µM
  relative viability: 0.741
[2]; first compound 0.05 µM
  relative viability: 0.134
[2]; first compound 0.1581 µM
  relative viability: 0.144
[2]; first compound 0.5 µM
  relative viability: 0.0781

## NCI-H727
[1]; first compound 0.02 µM
  relative viability: 1
[1]; first compound 0.2 µM
  relative viability: 1.01
[1]; first compound 0.6325 µM
  relative viability: 0.776
[1]; first compound 2 µM
  relative viability: 0.782
Sulindac + Phenformin; first compound 0.08 µM
  relative viability: 0.406
Sulindac + Phenformin; first compound 0.253 µM
  relative viability: 0.554
Sulindac + Phenformin; first compound 2.53 µM
  relative viability: 0.564
Sulindac + Phenformin; first compound 8 µM
  relative viability: 0.584
Sulindac + Palbociclib; first compound 0.08 µM
  relative viability: 0.621
Sulindac + Palbociclib; first compound 0.253 µM
  relative viability: 0.643
Sulindac + Palbociclib; first compound 0.8 µM
  relative viability: 0.566
Sulindac + Palbociclib; first compound 2.53 µM
  relative viability: 0.627
Sulindac + Palbociclib; first compound 8 µM
  relative viability: 0.667
[2]; first compound 0.005 µM
  relative viability: 0.3
[2]; first compound 0.01581 µM
  relative viability: 0.322
[2]; first compound 0.05 µM
  relative viability: 0.228
[2]; first compound 0.1581 µM
  relative viability: 0.181
[2]; first compound 0.5 µM
  relative viability: 0.164
